# Results as given in EP1542672B1, “R-BAMBUTEROL, ITS PREPARATION AND THERAPEUTIC USES” (priority 2002, dated 2004).
# Key:
# hyperlipidemia mice = experiment: Lipid lowering effects in Tyloxapol-induced hyperlipidemia mice; type: in vivo, Kunming strain; conditions: plasma; 10 mg/kg oral once a day for four days; Tyloxapol 400 mg/kg i.p.; blood 24 hours after Tyloxapol
# Description: Test method: Male and […] mice, Kunming strain, 35 each, weight 18-22 grams, were used. Food and water were available ad libitum. The animals were randomized into 7 groups (n=10). Groups of animals were administered orally, via a stomach tube, vehicle (distilled water, two groups), R-bambuterol hydrochloride (10 mg/kg and 5 mg/kg), racemic bambuterol hydrochloride (10 mg/kg and 5 mg/kg) and simvastatin (10 mg/kg) once a day for four days. With the exception of one vehicle- treated group (as control), Tyloxapol (400 mg/kg, Sigma Chemical Co.) was injected into the peritoneal cavity of the mice of all groups immediately after the last treatment on the fourth day in order to induce hyperlipidemia. All the animals were fasted overnight prior to the injection of Tyloxapol. Blood samples were collected by cardiac puncture 24 hours after the injection of Tyloxapol. The blood samples were processed to plasma, and concentration of triglycerides (TG), cholesterol (CHO), high density lipoprotein (HDL), low density lipoprotein (LDL) and very low density lipoprotein (VLDL) were measured with an auto-blood analyzer (Olympic, Japan).
# Rats (Sprague Dawley) = experiment: Cardiovascular effects in anesthetized rats (HR, MBP, Max dp/dt); type: in vivo; conditions: 30 mg/kg intravenously
# Excerpt: Test method: Rats (Sprague Dawley, 250-300g) were randomized into two groups (n=6, equal sexes). After anesthesia, plastic tubing was introduced into a carotid artery of each animal and connected to pressure transducers to record mean artery pressure (MBP) and heart rate (HR). Another tube was introduced into the left ventricular chamber via the another carotid artery and connected to a pressure transducer. Left ventricular systolic pressure (LVSP) and the first order of differential of LVSP (dp/dt) as an index for inotropic effects were recorded. R-Bambuterol and racemic bambuterol hydrochloride were dissolved in saline and administrated intravenously at 30 mg/kg to each animal. The HR, MBP and Max dp/dt were measured before treatment (control) and after the treatments when the maximum response occurred, and 20 min after treatment as indication of recovery.
# [1] = bronchospasmolytic activity upon oral administration; cited from earlier work
# [2] = 20 min after treatment (recovery)
# [3] = change from pre-treatment control at maximum response
smiles,measurement,setting,value
CN(C)C(=O)Oc1cc(OC(=O)N(C)C)cc(C(O)CNC(C)(C)C)c1 (racemic) [bambuterol],CHO lipid levels,hyperlipidemia mice,125.2 ± 19.8 mg/dL
same,HDL lipid levels,hyperlipidemia mice,50 ± 17 mg/dL
same,LDL lipid levels,hyperlipidemia mice,30 ± 6 mg/dL
same,TG lipid levels,hyperlipidemia mice,148 ± 45 mg/dL
same,VLDL lipid levels,hyperlipidemia mice,44.2 ± 14.4 mg/dL
same,"HR, 20min after Δ",Rats (Sprague Dawley); [2],40±9 Beat/min
same,"MBP, 20min after Δ",Rats (Sprague Dawley); [2],1.1±0.4 Kpa
same,"MBP, 20min after Δ, % of control",Rats (Sprague Dawley); [2],8.3%
same,"Maxdp/dt, 20min after Δ",Rats (Sprague Dawley); [2],13±3.8 Kpa/sec
same,"Maxdp/dt, 20min after Δ, % of control",Rats (Sprague Dawley); [2],4.8%
same,"HR, 20min after Δ, % of Control","Rats (Sprague Dawley); 20 min after treatment (recovery), listed as Rac-Bambuterol",9.5%
same,"HR, 20min after Δ, % of Control","Rats (Sprague Dawley); 20 min after treatment (recovery), listed as racemic bambuterol hydrochloride",9.5%
same,"HR, Treatment Δ, % of Control",Rats (Sprague Dawley); at maximum response,20.6%
same,"MBP, Treatment Δ, % of control",Rats (Sprague Dawley); at maximum response,31.6%
same,"Maxdp/dt, Treatment Δ, % of control","Rats (Sprague Dawley); at maximum response, listed as Rac-Bambuterol",24.4%
same,"Maxdp/dt, Treatment Δ, % of control","Rats (Sprague Dawley); at maximum response, listed as racemic bambuterol",24.4%
same,"HR, Treatment Δ",Rats (Sprague Dawley); [3],85.8±5 Beat/min
same,"MBP, Treatment Δ",Rats (Sprague Dawley); [3],4.2±0.5 Kpa
same,"Maxdp/dt, Treatment Δ",Rats (Sprague Dawley); [3],65.4±9 Kpa/sec
same,duration of activity,[1],more than 12 hours
